# Measurements taken from patent EP4410284A1, “COMPOUND AND METHOD FOR THE TREATMENT OF ZELLWEGER SPECTRUM DISORDER” (Apteeus, priority 2023, dated 2024).
# Read-outs that look alike come from different tables or passages of the source.
# Key:
# GM 16865 = assay: Catalase import immunofluorescence (% importing cells); format: cell-based, human; conditions: GM 16865 (PEX26)
# Protocol: (§1) Primary fibroblasts were seeded at 500-700 cells per well in 384-well plates and grown at 37°C overnight. Cells were treated with test compounds or 0.1% DMSO for 3 days. After 3 days and a wash with PBS, cells were fixed with 4% paraformaldehyde (Electron Microscopy Sciences) in PBS for 20 minutes. After 3 washes with PBS, the cells were permeabilized and blocked with 0.3% Triton X-100, 1% BSA in PBS for 30 minutes at room temperature followed by 3 washes with 1% BSA in PBS. The cells were incubated with a rabbit Catalase polyclonal antibody (#12980 Cell signaling) overnight at 4°C. Following 3 washes with PBS containing 0.1% Tween-20, the cells were incubated for 1 h at room temperature with a conjugated goat anti-rabbit secondary antibody Alexa Fluor 647 (Ab150083-Abcam). The cells were then washed 3 times with PBS and Hoechst 33342 (H3570-ThermoFisher Scientific) + HCS Cellmask Blue (H32720 - ThermoFisher Scientific) staining was performed at 0.1 µg/ml and 0.4 µg/mL respectively for 30 minutes at room temperature. The cells were finally washed 3 times with PBS and fluorescent images were acquired using the INCell Analyzer 6000 imaging platform (GE Healthcare Life Sciences).
# (§2) Images analysis was done using Columbus analysis software (PerkinElmer). DAPI channel was used to find nuclei (Hoechst 33342) and cytoplasm (HCS CellMask Blue) and border objects were removed. Cy5 channel (AlexaFluor 647) was used to find spots corresponding to peroxisomes which correctly import catalase. Cells were classified as importing or non-importing cells using a linear classifier method after training with images of wells containing Healthy cells and PEX1 deficient cells. The number of importing or non-importing cells was calculated. Finally, results were expressed as % of importing cells.
# (§3) Among the HDAC inhibitors of example 2, 4 were tested on other cells which are PEX1, PEX6 or PEX26 deficient.
# GM 17398 = assay: as above; format: cell-based, human; conditions: GM 17398 (PEX26 deficient)
# Protocol: as §1, §2, §3
# PEX506 = assay: as above; format: cell-based, human; conditions: PEX506 (PEX6)
# Protocol: as §1, §2, §3
# GM11335 = assay: as above; format: cell-based, human; conditions: GM11335 (PEX26)
# Protocol: as §1, §2, §3
# PEX304 = assay: as above; format: cell-based, human; conditions: PEX304 (PEX1)
# Protocol: as §1, §2, §3
# PEX607 = assay: as above; format: cell-based, human; conditions: PEX607 (PEX6)
# Protocol: as §1, §2, §3
# GM16513 cells [1] = assay: Catalase import immunofluorescence, high-content screening (% importing cells); format: cell-based, human; conditions: GM16513 cells, 3 days
# GM16513 cells [2] = format: cell-based; conditions: 3 days, PI positive cells (dead cells)
# Protocol: (§4) Images were acquired using the EnSight multimode plate reader (PerkinElmer) and analysis was done using Columbus analysis software (PerkinElmer). […] Then the total number of cells and the % of dead cells was calculated.
# (§5) All HDAC inhibitors were tested at 1.3 and 10 µM for 3 days on GM16513 and PEX405 cells.
# PEX405 cells [3] = format: cell-based; conditions: 3 days, PI positive cells (dead cells)
# Protocol: as §4, §5
# PEX405 cells [4] = assay: Catalase import immunofluorescence, high-content screening (% importing cells); format: cell-based, human; conditions: for % Importing cells: PEX405 cells, 3 days
# Protocol: The cytotoxicity was assessed in parallel using a double nucleus staining with Hoechst 33342 and Propidium Iodide (PI).
smiles,measurement,setting,value
O=C(CCCCCCC(=O)Nc1ccccc1)NO [Vorinostat],Concentration (lower dose leading to the maximum effect),GM 16865,3 µM
same,Importing cells (%),GM 16865; at the lower dose leading to the maximum effect (see E22),27%
same,Concentration (lower dose leading to the maximum effect),GM 17398,30 µM
same,Importing cells (%),GM 17398; at the lower dose leading to the maximum effect (see E24),2%
same,Concentration (lower dose leading to the maximum effect),PEX506,0.33 µM
same,Importing cells (%),PEX506; at the lower dose leading to the maximum effect (see E16),57%
same,Concentration (lower dose leading to the maximum effect),GM11335,3 µM
same,Importing cells (%),GM11335; at the lower dose leading to the maximum effect (see E20),25%
same,Concentration (lower dose leading to the maximum effect),PEX304,3 µM
same,Importing cells (%),PEX304; at the lower dose leading to the maximum effect (see E14),8%
same,Concentration (lower dose leading to the maximum effect),PEX607,3 µM
same,Importing cells (%),PEX607; at the lower dose leading to the maximum effect (see E18),48%
same,% Importing cells,GM16513 cells [1]; 1.3 µM,35%
same,% Importing cells,GM16513 cells [1]; 10 µM,96%
same,Emax,"GM16513 cells [1]; Homo sapiens, 72 h, dose response with 6 concentrations, read-out: Max Efficacy (% Importing cells)",90%
same,% PI+ cells,GM16513 cells [2]; 1.3 µM,2%
same,% PI+ cells,GM16513 cells [2]; 10 µM,9%
same,% PI+ cells,PEX405 cells [3]; 1.3 µM,1%
same,% PI+ cells,PEX405 cells [3]; 10 µM,9%
same,Concentration (lower dose leading to the maximum effect),PEX405 cells [4]; PEX405 (PEX1),10 µM
same,Importing cells (%),"PEX405 cells [4]; PEX405 (PEX1), at the lower dose leading to the maximum effect (see E12)",16%
same,% Importing cells,PEX405 cells [4]; 1.3 µM,13%
same,% Importing cells,PEX405 cells [4]; 10 µM,16%
